What all share (test): cells
One series relates to WI-38 cells. As to conditions: for IC50: Homo sapiens, WI-38, 48 h, read-out: IC50 against WI-38; for IC50 against WI-38: WST-1, 48 h, mean ± SD (n = 6). On the procedure: (§1) Cell viability were analysed using the WST-1 cell proliferation reagent according to the earlier described technique. All cells (1 × 10^4 cells/well) were treated for 48 h with concentrations ranging from 0–200 µg/ml of ETME, ascorbic acid, catechin, tannic acid, reserpine, methyl gallate and rutin. Cell proliferation and viability were measured by measuring absorbance of the coloured product spectrophotometrically at 460 nm using a microplate ELISA reader […] EX (Thermo Electron Corporation, USA).
(§2) All spectrophotometric data were presented as the mean six times ±SD and cell cycle and ROS analysis data by FACS was introduced as the mean three times ±SD. The statistical analysis was determined by KyPlot version 2.0 beta 15 (32 bit). […] The IC50 values were compared by paired t test. P < 0.05 was considered significant.
For orientation: Tetrazolium dyes change colour on reduction, which living cells bring about.

For a further series, the system named is MCF-7 cells. The settings on record: for IC50: Homo sapiens, MCF7, 48 h, read-out: IC50 against MCF-7; for IC50 against MCF-7: WST-1, 48 h, mean ± SD (n = 6). Here is the method: as §1, §2
For a further series, the system named is A549 cells. The settings on record: for IC50: Homo sapiens, A549, 48 h, read-out: IC50 against A549; for IC50 against A549: WST-1, 48 h, mean ± SD (n = 6). On the procedure: as §1, §2

In brackets after ≈: the same amount, converted by molar mass.

The IC50 is the concentration needed to halve the response being measured. As for `COC(=O)[C@H]1[C@H]2C[C@@H]3c4[nH]c5cc(OC)ccc5c4CCN3C[C@H]2C[C@@H](OC(=O)c2cc(OC)c(OC)c(OC)c2)[C@@H]1OC` [Reserpine, reference compound], in the series with WI-38 cells, the “cytotoxicity against WI-38 cells” value was “promissive cytotoxicity” and the IC50 turned out to be 50.5 ± 1.48 µg/mL (≈ 82.9 µM). Also, in the series on MCF-7 cells, the “cytotoxicity against MCF-7 cells” value is “promissive cytotoxicity” and the IC50 was found to be 57.3 ± 2.29 µg/mL (≈ 94.1 µM). In addition, in the series with A549 cells, the “cytotoxicity against A549 cells” value is “promissive cytotoxicity” and the IC50 came out at 68.5 ± 1.73 µg/mL (≈ 112 µM).
On to `O=C1O[C@H]([C@@H](O)CO)C(O)=C1O` [Ascorbic acid, reference compound], for which, in the series with WI-38 cells, the “cytotoxicity against WI-38 cells” value is given as “negligible cytotoxicity” and the IC50 turned out to be 6800 ± 2250 µg/mL (≈ 38600 µM). For the same compound, in the series on MCF-7 cells, the “cytotoxicity against MCF-7 cells” value is “toxic” and the concentration for half-maximal inhibition (IC50) came out at 79.1 ± 2.2 µg/mL (≈ 449 µM). In the series on A549 cells, the “cytotoxicity against A549 cells” value is “negligible cytotoxicity” and the IC50 is 6020 ± 3440 µg/mL (≈ 34200 µM).
On to `COC(=O)c1cc(O)c(O)c(O)c1` [Methyl gallate], for which, in the series with WI-38 cells, the “cytotoxicity against WI-38 cells” value is “promissive cytotoxicity” and the IC50 is 344 ± 31.3 µg/mL (≈ 1870 µM). In addition, in the series with MCF-7 cells, the “cytotoxicity against MCF-7 cells” value is “promissive cytotoxicity” and the IC50 worked out at 53 ± 1.91 µg/mL (≈ 288 µM). In addition, in the series on A549 cells, the “cytotoxicity against A549 cells” value is reported as “promissive cytotoxicity” and the IC50 worked out at 77.2 ± 1.82 µg/mL (≈ 420 µM).
For the compound `C[C@@H]1O[C@@H](OC[C@H]2O[C@@H](Oc3c(-c4ccc(O)c(O)c4)oc4cc(O)cc(O)c4c3=O)[C@H](O)[C@@H](O)[C@@H]2O)[C@H](O)[C@H](O)[C@H]1O` [Rutin], in the series with WI-38 cells, the “cytotoxicity against WI-38 cells” value was “negligible cytotoxicity” and the IC50 is 1230 ± 195 µg/mL (≈ 2020 µM). In the series on MCF-7 cells, the “cytotoxicity against MCF-7 cells” value is listed as “toxic” and the half-maximal inhibitory concentration (IC50) stood at 271 ± 9.85 µg/mL (≈ 444 µM). Also, in the series with A549 cells, the “cytotoxicity against A549 cells” value is on record as “negligible cytotoxicity” and the IC50 stood at 4180 ± 1610 µg/mL (≈ 6840 µM).
For Tannic acid, in the series with WI-38 cells, the “cytotoxicity against WI-38 cells” value is on record as “promissive cytotoxicity” and the “IC50 against WI-38” value stood at 308.32 ± 8.32 µg/mL. Moreover, in the series on MCF-7 cells, the “cytotoxicity against MCF-7 cells” value is reported as “promissive cytotoxicity” and the “IC50 against MCF-7” value is 97.24 ± 4.89 µg/mL. Besides, in the series on A549 cells, the “cytotoxicity against A549 cells” value is on record as “promissive cytotoxicity” and the “IC50 against A549” value worked out at 302.25 ± 11.86 µg/mL.
With `O.Oc1cc(O)c2c(c1)O[C@H](c1ccc(O)c(O)c1)[C@@H](O)C2` [Catechin], in the series on WI-38 cells, the “cytotoxicity against WI-38 cells” value is given as “negligible cytotoxicity” and the “IC50 against WI-38” value worked out at 753.56 ± 31.99 µg/mL. For the same compound, in the series with MCF-7 cells, the “cytotoxicity against MCF-7 cells” value was “toxic” and the “IC50 against MCF-7” value was determined as 256.52 ± 17.14 µg/mL. Moreover, in the series with A549 cells, the “cytotoxicity against A549 cells” value is recorded as “negligible cytotoxicity” and the “IC50 against A549” value was 4010.65 ± 1849.57 µg/mL.

The values are drawn from PMC4928336, “A microalga, Euglena tuba induces apoptosis and suppresses metastasis in human lung and breast carcinoma cells through ROS-mediated regulation of MAPKs” (Cancer Cell International, 2016).
